From US20210267944A1 (BioXcel Therapeutics, Inc., priority 2018, published 2021)
Counter-ions that a name gives are not always drawn. Like-named read-outs stand apart in the source and are kept apart here.

Settings: opioid withdrawal patients
Text: The participants were continuously monitored by the site personnel, including blood pressure and heart rate, from the start of the infusion through resolution of sedation and/or any adverse effects on blood pressure or heart rate. An electrocardiogram was obtained at screening, pre-infusion and upon resolution of sedation, a predetermined reduction in COWS or return to baseline.

Cc1cccc([C@H](C)c2cnc[nH]2)c1C [dexmedetomidine hydrochloride]
Diastolic blood pressure Max (Day-1, 00:00 Hr): 110 mm of Hg | Diastolic blood pressure Mean ± SD (Day-1, 00:00 Hr): 83.81 ± 12.99 mm of Hg | Diastolic blood pressure Median (Day-1, 00:00 Hr): 82 mm of Hg | Diastolic blood pressure Min (Day-1, 00:00 Hr): 64 mm of Hg | Heart rate Max (Day-1, 00:00 Hr): 106 beats/minutes | Heart rate Mean ± SD (Day-1, 00:00 Hr): 69.9 ± 16.37 beats/minutes | Heart rate Median (Day-1, 00:00 Hr): 66 beats/minutes | Heart rate Min (Day-1, 00:00 Hr): 55 beats/minutes | Diastolic blood pressure Max (Day-1, 00:15 Hr): 96 mm of Hg | Diastolic blood pressure Mean ± SD (Day-1, 00:15 Hr): 78.09 ± 9.99 mm of Hg | Diastolic blood pressure Median (Day-1, 00:15 Hr): 76 mm of Hg | Diastolic blood pressure Min (Day-1, 00:15 Hr): 62 mm of Hg | Heart rate Max (Day-1, 00:15 Hr): 86 beats/minutes | Heart rate Mean ± SD (Day-1, 00:15 Hr): 66.36 ± 11.9 beats/minutes | Heart rate Median (Day-1, 00:15 Hr): 67 beats/minutes | Heart rate Min (Day-1, 00:15 Hr): 49 beats/minutes | Diastolic blood pressure Max (Day-1, 00:30 Hr): 86 mm of Hg | Diastolic blood pressure Mean ± SD (Day-1, 00:30 Hr): 70 ± 8.8 mm of Hg | Diastolic blood pressure Median (Day-1, 00:30 Hr): 68 mm of Hg | Diastolic blood pressure Min (Day-1, 00:30 Hr): 59 mm of Hg | Heart rate Max (Day-1, 00:30 Hr): 84 beats/minutes | Heart rate Mean ± SD (Day-1, 00:30 Hr): 66.88 ± 12.26 beats/minutes | Heart rate Median (Day-1, 00:30 Hr): 70 beats/minutes | Heart rate Min (Day-1, 00:30 Hr): 52 beats/minutes | Diastolic blood pressure Max (Day-1, 00:45 Hr): 86 mm of Hg | Diastolic blood pressure Mean ± SD (Day-1, 00:45 Hr): 74.5 ± 7.67 mm of Hg | Diastolic blood pressure Median (Day-1, 00:45 Hr): 76 mm of Hg | Diastolic blood pressure Min (Day-1, 00:45 Hr): 61 mm of Hg | Heart rate Max (Day-1, 00:45 Hr): 89 beats/minutes | Heart rate Mean ± SD (Day-1, 00:45 Hr): 68.83 ± 14.91 beats/minutes | Heart rate Median (Day-1, 00:45 Hr): 66 beats/minutes | Heart rate Min (Day-1, 00:45 Hr): 50 beats/minutes | Diastolic blood pressure Max (Day-1, 01:00 Hr): 77 mm of Hg | Diastolic blood pressure Mean ± SD (Day-1, 01:00 Hr): 71.4 ± 6.05 mm of Hg | Diastolic blood pressure Median (Day-1, 01:00 Hr): 72 mm of Hg | Diastolic blood pressure Min (Day-1, 01:00 Hr): 60 mm of Hg | Heart rate Max (Day-1, 01:00 Hr): 85 beats/minutes | Heart rate Mean ± SD (Day-1, 01:00 Hr): 69.6 ± 11.35 beats/minutes | Heart rate Median (Day-1, 01:00 Hr): 66 beats/minutes | Heart rate Min (Day-1, 01:00 Hr): 54 beats/minutes | Diastolic blood pressure Max (Day-1, 01:15 Hr): 82 mm of Hg | Diastolic blood pressure Mean ± SD (Day-1, 01:15 Hr): 72 ± 8.16 mm of Hg | Diastolic blood pressure Median (Day-1, 01:15 Hr): 72 mm of Hg | Diastolic blood pressure Min (Day-1, 01:15 Hr): 62 mm of Hg | Heart rate Max (Day-1, 01:15 Hr): 76 beats/minutes | Heart rate Mean ± SD (Day-1, 01:15 Hr): 72 ± 2.82 beats/minutes | Heart rate Median (Day-1, 01:15 Hr): 70 beats/minutes | Heart rate Min (Day-1, 01:15 Hr): 70 beats/minutes | Diastolic blood pressure Max (Day-1, 01:30 Hr): 66 mm of Hg | Diastolic blood pressure Mean ± SD (Day-1, 01:30 Hr): 61 ± 5 mm of Hg | Diastolic blood pressure Median (Day-1, 01:30 Hr): 61 mm of Hg | Diastolic blood pressure Min (Day-1, 01:30 Hr): 56 mm of Hg | Heart rate Max (Day-1, 01:30 Hr): 61 beats/minutes | Heart rate Mean ± SD (Day-1, 01:30 Hr): 60.5 ± 0.5 beats/minutes | Heart rate Median (Day-1, 01:30 Hr): 60.5 beats/minutes | Heart rate Min (Day-1, 01:30 Hr): 60 beats/minutes | Diastolic blood pressure Max (Day-1, 30 min. post Infusion): 86 mm of Hg | Diastolic blood pressure Mean ± SD (Day-1, 30 min. post Infusion): 75.27 ± 9.22 mm of Hg | Diastolic blood pressure Median (Day-1, 30 min. post Infusion): 73 mm of Hg | Diastolic blood pressure Min (Day-1, 30 min. post Infusion): 60 mm of Hg | Heart rate Max (Day-1, 30 min. post Infusion): 99 beats/minutes | Heart rate Mean ± SD (Day-1, 30 min. post Infusion): 65.18 ± 14.03 beats/minutes | Heart rate Median (Day-1, 30 min. post Infusion): 62 beats/minutes | Heart rate Min (Day-1, 30 min. post Infusion): 50 beats/minutes | Diastolic blood pressure Max (Day-1, Screening): 108 mm of Hg | Diastolic blood pressure Mean ± SD (Day-1, Screening): 84.18 ± 13.13 mm of Hg | Diastolic blood pressure Median (Day-1, Screening): 81 mm of Hg | Diastolic blood pressure Min (Day-1, Screening): 63 mm of Hg | Heart rate Max (Day-1, Screening): 108 beats/minutes | Heart rate Mean ± SD (Day-1, Screening): 68.54 ± 15.32 beats/minutes | Heart rate Median (Day-1, Screening): 66 beats/minutes | Heart rate Min (Day-1, Screening): 55 beats/minutes | Diastolic blood pressure Max (Day-2, 00:00 Hr): 88 mm of Hg | Diastolic blood pressure Mean ± SD (Day-2, 00:00 Hr): 78.4 ± 7.86 mm of Hg | Diastolic blood pressure Median (Day-2, 00:00 Hr): 79 mm of Hg | Diastolic blood pressure Min (Day-2, 00:00 Hr): 69 mm of Hg | Heart rate Max (Day-2, 00:00 Hr): 94 beats/minutes | Heart rate Mean ± SD (Day-2, 00:00 Hr): 68.8 ± 13.94 beats/minutes | Heart rate Median (Day-2, 00:00 Hr): 63 beats/minutes | Heart rate Min (Day-2, 00:00 Hr): 55 beats/minutes | Diastolic blood pressure Max (Day-2, 00:15 Hr): 90 mm of Hg | Diastolic blood pressure Mean ± SD (Day-2, 00:15 Hr): 77.4 ± 9.91 mm of Hg | Diastolic blood pressure Median (Day-2, 00:15 Hr): 76 mm of Hg | Diastolic blood pressure Min (Day-2, 00:15 Hr): 62 mm of Hg | Heart rate Max (Day-2, 00:15 Hr): 85 beats/minutes | Heart rate Mean ± SD (Day-2, 00:15 Hr): 67.4 ± 12.35 beats/minutes | Heart rate Median (Day-2, 00:15 Hr): 61 beats/minutes | Heart rate Min (Day-2, 00:15 Hr): 53 beats/minutes | Diastolic blood pressure Max (Day-2, 00:30 Hr): 84 mm of Hg | Diastolic blood pressure Mean ± SD (Day-2, 00:30 Hr): 73.4 ± 8.54 mm of Hg | Diastolic blood pressure Median (Day-2, 00:30 Hr): 71 mm of Hg | Diastolic blood pressure Min (Day-2, 00:30 Hr): 61 mm of Hg | Heart rate Max (Day-2, 00:30 Hr): 93 beats/minutes | Heart rate Mean ± SD (Day-2, 00:30 Hr): 68.2 ± 5.54 beats/minutes | Heart rate Median (Day-2, 00:30 Hr): 58 beats/minutes | Heart rate Min (Day-2, 00:30 Hr): 54 beats/minutes | Diastolic blood pressure Max (Day-2, 00:45 Hr): 86 mm of Hg | Diastolic blood pressure Mean ± SD (Day-2, 00:45 Hr): 79 ± 7.68 mm of Hg | Diastolic blood pressure Median (Day-2, 00:45 Hr): 82 mm of Hg | Diastolic blood pressure Min (Day-2, 00:45 Hr): 66 mm of Hg | Heart rate Max (Day-2, 00:45 Hr): 97 beats/minutes | Heart rate Mean ± SD (Day-2, 00:45 Hr): 69 ± 16.80 beats/minutes | Heart rate Median (Day-2, 00:45 Hr): 63 beats/minutes | Heart rate Min (Day-2, 00:45 Hr): 53 beats/minutes | Diastolic blood pressure Max (Day-2, 01:00 Hr): 87 mm of Hg | Diastolic blood pressure Mean ± SD (Day-2, 01:00 Hr): 79.33 ± 7.58 mm of Hg | Diastolic blood pressure Median (Day-2, 01:00 Hr): 82 mm of Hg | Diastolic blood pressure Min (Day-2, 01:00 Hr): 69 mm of Hg | Heart rate Max (Day-2, 01:00 Hr): 94 beats/minutes | Heart rate Mean ± SD (Day-2, 01:00 Hr): 72.66 ± 17.15 beats/minutes | Heart rate Median (Day-2, 01:00 Hr): 72 beats/minutes | Heart rate Min (Day-2, 01:00 Hr): 52 beats/minutes | Diastolic blood pressure Max (Day-2, 01:15 Hr): 101 mm of Hg
